Data: PMC11678245, “The Molecular Basis of the Intrinsic and Acquired Resistance to Azole Antifungals in Aspergillus fumigatus” (Journal of Fungi, 2024)
Where “and” joins values, the source holds several entries; their conditions need not be identical. Identical values can stand only once. Entries after “also recorded” stand apart in the source; their conditions may differ.

Tests used:
[1] = molecular target: T1, AfCYP51B-6×His (Aspergillus fumigatus, UniProt E9QY26); experiment: Type I binding of substrates (difference spectra)
T1 sequence (E9QY26 1-524): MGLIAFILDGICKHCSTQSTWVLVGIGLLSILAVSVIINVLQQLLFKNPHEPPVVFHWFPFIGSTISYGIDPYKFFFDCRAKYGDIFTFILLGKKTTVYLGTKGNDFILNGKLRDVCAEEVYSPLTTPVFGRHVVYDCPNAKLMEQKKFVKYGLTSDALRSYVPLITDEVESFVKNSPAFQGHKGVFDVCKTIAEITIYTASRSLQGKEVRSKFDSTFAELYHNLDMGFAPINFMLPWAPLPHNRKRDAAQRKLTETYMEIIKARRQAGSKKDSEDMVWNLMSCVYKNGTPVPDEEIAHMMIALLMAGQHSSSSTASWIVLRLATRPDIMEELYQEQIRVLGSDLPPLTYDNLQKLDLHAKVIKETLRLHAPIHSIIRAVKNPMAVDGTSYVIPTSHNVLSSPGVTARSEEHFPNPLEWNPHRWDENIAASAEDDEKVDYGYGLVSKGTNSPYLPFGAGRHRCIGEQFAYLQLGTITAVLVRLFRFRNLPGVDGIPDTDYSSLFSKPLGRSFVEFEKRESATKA
Method: (§1) The concentration of AfCYP51A and AfCYP51B, purified using Ni-NTA affinity chromatography and used for the spectrophotometric type I and type II binding assays, was calculated using an extinction co-efficient of λ417nm = 117 mM^−1 cm^−1 applied to the absolute absorption spectrum of the preparations. In addition, the amount of “active” cytochrome P450 enzyme was determined using the carbon monoxide (CO) binding spectra of these preparations.
(§2) Type I binding of substrates lanosterol and eburicol in the active site of the Ni-NTA affinity-purified AfCYP51A and AfCYP51B enzymes was assessed using the method of Warrilow et al.. Titrations of 5 μM AfCYP51-6×His protein with lanosterol or eburicol (1 to 250 μM) were measured using a Cary 300 UV–Visible Spectrophotometer (Agilent Technologies, Santa Clara, CA, USA). Substrate saturation curves were constructed by plotting the maximal ∆Apeak−trough obtained between 350 and 500 nm, allowing for a change in the reaction volume during the titration. The substrate binding constant (KS) was calculated by nonlinear regression (Levenberg–Marquardt algorithm) applied to the Michaelis–Menten equation or the Hill equation. GraphPad Prism 9.2.0 software was used to identify the best fit for the data.

[2] = molecular target: AfCYP51A-6×His (Aspergillus fumigatus, UniProt Q4WNT5); experiment: Type I binding of substrates (difference spectra); set-up: Full-length codon-optimised AfCYP51A-6×His and AfCYP51B-6×His were constitutively co-expressed; made in house; settings: AfCYP51A-6×His 5 µM, concentrations up to 300 μM
Method: as §1
as §2, with “Titrations of 5 μM AfCYP51-6×His protein with lanosterol or eburicol (1 to 250 μM) were measured using a Cary 300 UV–Visible Spectrophotometer (Agilent Technologies, Santa Clara, CA, USA).” left out

Sequence of AfCYP51A-6×His (Q4WNT5 whole entry): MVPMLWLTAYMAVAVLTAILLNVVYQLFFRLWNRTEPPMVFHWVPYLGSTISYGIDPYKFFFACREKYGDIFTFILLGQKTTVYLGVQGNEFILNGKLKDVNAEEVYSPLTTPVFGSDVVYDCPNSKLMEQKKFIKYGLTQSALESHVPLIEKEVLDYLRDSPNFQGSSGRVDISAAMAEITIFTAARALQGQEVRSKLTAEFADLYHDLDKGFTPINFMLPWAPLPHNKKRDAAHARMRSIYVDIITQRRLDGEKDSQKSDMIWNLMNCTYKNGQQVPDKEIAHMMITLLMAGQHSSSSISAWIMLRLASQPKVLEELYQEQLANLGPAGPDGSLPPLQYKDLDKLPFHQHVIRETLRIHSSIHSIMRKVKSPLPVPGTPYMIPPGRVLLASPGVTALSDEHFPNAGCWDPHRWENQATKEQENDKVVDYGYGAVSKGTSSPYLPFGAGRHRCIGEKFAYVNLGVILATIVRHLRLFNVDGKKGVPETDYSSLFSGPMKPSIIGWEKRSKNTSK

CC(C)=CCC[C@@H](C)[C@H]1CC[C@@]2(C)C3=C(CC[C@]12C)[C@@]1(C)CC[C@H](O)C(C)(C)[C@@H]1CC3 [Lanosterol, lanosterol]
type I binding spectrum peak ([1]; AfCYP51B-6×His): 386 nm | type I binding spectrum trough ([1]; AfCYP51B-6×His): 423 nm | ΔAmax (type I binding) ([1]; AfCYP51B-6×His 5 μM, Michaelis–Menten equation): 0.22 and 0.219 | Kd ([1]; AfCYP51B-6×His 5 μM, type I binding, Michaelis–Menten equation, read-out: Ks): 477 µM | affinity of AfCYP51B for eburicol versus lanosterol ([1]; ratio of Ks values): approximately 6 fold | type I binding response [2]: did not give the expected type I binding response; also recorded: did not give a type I binding response
